According to patent publication US11357819B2, “Cytocidal agent” (FUJITA ACADEMY, priority 2017, dated 2022):
Entries after “also recorded” stand apart in the source; their conditions may differ. Like-named read-outs stand apart in the source and are kept apart here. Where a SMILES comes first, the peptide text is derived from it. [ ]: non-standard residue; d: D form.

Key:
[1] = in vivo
Method: A weight of each mouse was measured before being died of bleeding.
As a result, in the control group into which a peptide was not administered (n=8), the number of dead individuals after 24 days from transplanting the A431-CNGB3-myc cells into the peritoneal cavity was 1, and the alive rate was […]. With respect to this, in a group into which the IF7 (RR)−(K+H) peptide was administered such that the IF7 (RR)−(K+H) peptide was 10 μg/body/day or 50 μg/body (n=6), the alive rate was 100%. In addition, at the time of the end of the test, the spread of cancer cells (A431-CNGB3-myc cells) in the peritoneal cavity of all mice was examined.

[2] = system: Ishikawa, SNG-II, Hec-1A and RL95-2 cells (cell strains derived from a uterine cancer cell); test: Cytocidal activity by relative ATP amount (CellTiter-Glo) in cell strains derived from uterine cancer cells; format: cell-based, human; conditions: Example 6, 2.34 to 300.0 μM, 20 hours, FIGS. 11 to 14
Method: As the cancer-derived cell strain, an Ishikawa cell derived from human endometrium gland cancer, an SNG-II cell derived from human endometrium cancer, an Hec-1A cell derived from human uterine body cancer, and a RL95-2 cell derived from human endometrium cancer were used. The cells were cultured in the same manner as the A431-CNG133-myc cells.
The cytocidal activity of each peptide was evaluated in the same manner as that of Example 1, except that the final concentration of each peptide added to each cell disseminated into the 96-well plate was set to be 0 (peptide non-added), 2.34, 4.69, 9.38, 18.8, 37.5, 75.0, 150.0, or 300.0 μM. A relative fluorescence intensity (%) of each reaction solution in a case Where the fluorescence intensity (RLU) of the reaction solution to which no peptide was added was set to 100% was calculated as a relative ATP amount (%). In the figure, the “14D−Z13+5D−Z13” represents a relative ATP amount of the reaction solution to which both of a peptide A2-1 and a peptide A2-2 were added, the “14D−Z13” represents a relative ATP amount of the reaction solution to which only the peptide A2-1 was added, the “5D−Z13” represents a relative ATP amount of the reaction solution to Which only the peptide A2-2 was added, and the “14D−5D−Z13” represents a relative ATP amount (%) of the reaction solution to which only the peptide A2 was added, respectively.

[3] = system: A431-CNGB3-myc cells; test: Cytocidal activity by ATP amount (CellTiter-Glo luminescence) in peptide-treated A431-CNGB3-myc cells; format: cell-based, human; conditions: for cytocidal activity (relative ATP amount %): Example 6, A431-CNGB3-myc cells, 2.34 to 300.0 μM, FIG. 10
Method: A transformed cell (A431-CNGB3-myc cell) obtained by introducing a gene encoding human CNGB3, in which an myc tag was fused in a C-terminal, into an A431 cell (human epithelial-like cell cancer-derived cell strain) and forcibly expressing thereof was prepared as an endometriosis model cell.
Culturing of the A431-CNGB3-myc cell was performed at 37° C. in a 5 volume % carbon dioxide environment using a medium in which 10% of inactivated FBS (bovine fetal serum, manufactured by Corning Corporation) and 1% of penicillin-streptomycin (manufactured by Invitrogen Corporation) were contained in a DMEM High Glucose medium (manufactured by GIBCO Corporation), as a culture medium. Passage was performed every two or three days.
The cytocidal activity of each peptide was evaluated by measuring an ATP amount in A431-CNGB3-myc cells treated with each peptide using CellTiter-Glo (registered trademark) assay kit (manufactured by Promega).
Specifically, first, A431-CNGB3-myc cells after 2 passages were disseminated into a 96-well plate (manufactured by Corning/Costar, Lot No. 00515003) so as to be 1×10^4 cells/well by preparing the concentration of the cells. After culturing for 2 days after the dissemination, each peptide was added to each well such that a final concentration was […], 75, or 150 μM, respectively, and cultured for 24 hours. Thereafter, the culture supernatant was removed from each well, and CellTiter-Glo buffer was added to the remaining cells, and after homogenization, the supernatant was recovered by centrifugation and used as a lysate. A double quantity of PBS and a 2×CellTiterGlo Reagent of the equivalent amount of the lysate were added to the lysate and stirred to obtain a reaction solution, and the reaction solution was stood at room temperature for 10 minutes. The luminescence intensity (Luminescence) (RLU: RELATIVE LIGHT UNITS) of the reaction solution after standing at room temperature was measured using a Synergy H1 hybrid multi-mode microplate reader (manufactured by BioTek Corporation). The luminescence intensity of the reaction solution is an indicator of the amount of ATP. It is shown that the smaller the luminescence intensity of the reaction solution is, the amount of ATP is small, and the cytocidal activity of the administered peptide is strong. All trials were measured in triplicate and the average was evaluated as the cytocidal activity at the concentration of each peptide.
The final concentration of each peptide added to the A431-CNGB3-myc cells disseminated into the 96-well plate was set to be 2.34, 4.69, 9.38, 18.8, 37.5, 75, or 150 μM, and the cytocidal activity of each peptide was evaluated in the same manner as that of Reference Example 1, except that the culture time after addition of the peptide was set to 20 hours. In the evaluation of the cytocidal activity against the A431-CNGB3-myc cells of each peptide, the measurement result of the fluorescence intensity (RLU) of each reaction solution is shown in FIG. 2. In the figure, “1” to “16” show the result of the reaction solution to which peptides 1 to 16 of Table 2 were added, respectively.
The cytocidal activity of each peptide was evaluated in the same manner as that of Example 1, except that the final concentration of each peptide added to each cell disseminated into the 96-well plate was set to be 0 (peptide non-added), 2.34, 4.69, 9.38, 18.8, 37.5, 75.0, 150.0, or 300.0 μM. A relative fluorescence intensity (%) of each reaction solution in a case Where the fluorescence intensity (RLU) of the reaction solution to which no peptide was added was set to 100% was calculated as a relative ATP amount (%). […]

[4] = Example 1, peptide 2.34 to 150 μM, 20 hours, FIG. 2
[5] = Reference Example 1, peptide 35.5, 75 or 150 μM, 24 hours, FIG. 1

Compound: CC[C@H](C)[C@H](N)C(=O)N[C@@H](Cc1ccccc1)C(=O)N[C@@H](CC(C)C)C(=O)N[C@@H](CC(C)C)C(=O)N[C@@H](Cc1c[nH]c2ccccc12)C(=O)N[C@@H](CCC(N)=O)C(=O)N[C@@H](CCCNC(=N)N)C(=O)N[C@@H](CCCNC(=N)N)C(=O)N[C@@H](CCCNC(=N)N)C(=O)N[C@H](CCCCN)C(=O)N[C@H](CC(C)C)C(=O)N[C@H](C)C(=O)N[C@H](CCCCN)C(=O)N[C@H](CC(C)C)C(=O)N[C@H](C)C(=O)N[C@H](CCCCN)C(=O)N[C@H](CCCCN)C(=O)N[C@H](CC(C)C)C(=O)N[C@H](C)C(=O)N[C@H](CCCCN)C(=O)N[C@H](CC(C)C)C(=O)N[C@H](C)C(=O)N[C@H](CCCCN)C(=O)N[C@H](Cc1c[nH]cn1)C(=O)N[C@H](CC(C)C)C(=O)N[C@H](C)C(=O)N[C@H](Cc1c[nH]cn1)C(=O)N[C@H](CC(C)C)C(=O)O [IF7 (RR)−(K+H) peptide, IFLLWQR-RR-KLAKLAK-KLAKLAK-HLAHL] (H-IFLLWQRRR[dK][dL][dA][dK][dL][dA][dK][dK][dL][dA][dK][dL][dA][dK][dH][dL][dA][dH][dL]-OH)
- weight of each mouse [1]: no particular change

Compound: CC(C)C[C@@H](NC(=O)[C@H](N)CCCCN)C(=O)N[C@H](C)C(=O)N[C@H](CCCCN)C(=O)N[C@H](CC(C)C)C(=O)N[C@H](C)C(=O)N[C@H](CCCCN)C(=O)N[C@H](CCCCN)C(=O)N[C@H](CC(C)C)C(=O)N[C@H](C)C(=O)N[C@H](CCCCN)C(=O)N[C@H](CC(C)C)C(=O)N[C@H](C)C(=O)N[C@H](CCCCN)C(=O)N[C@H](Cc1c[nH]cn1)C(=O)N[C@H](CC(C)C)C(=O)N[C@H](C)C(=O)N[C@H](Cc1c[nH]cn1)C(=O)N[C@H](CC(C)C)C(=O)N[C@H](C(=O)N[C@@H](CCCNC(=N)N)C(=O)N[C@@H](CCCNC(=N)N)C(=O)N[C@@H](C)C(=O)N[C@@H](CC(=O)O)C(=O)N[C@@H](CC(N)=O)C(=O)N[C@@H](CCCNC(=N)N)C(=O)N1CCC[C@H]1C(=O)NCC(=O)O)C(C)C [Peptide A2, KLAKLAK-KLAKLAK-HLAHL-VRRADNRPG] (H-[dK][dL][dA][dK][dL][dA][dK][dK][dL][dA][dK][dL][dA][dK][dH][dL][dA][dH][dL]VRRADNRPG-OH)
- weight of each mouse ([1]; ip): no particular change

Compound: HLAHL-VRRADNRPG (HLAHLVRRADNRPG; KLAK(14)-HLAH(5)-Z13 peptide) [Peptide A2-2]
- cytocidal activity (relative ATP amount %) [2]: hardly observed or significantly weak
- cytocidal activity (relative ATP amount %) ([3]; 20 hours): hardly observed or significantly weak

Compound: HLAHLAH-HLAHLAH-KLAKLAK-VRRADNRPG (HLAHLAHHLAHLAHKLAKLAKVRRADNRPG; HLAH(14)-KLAK(13)-Z13 peptide) [Peptide 16]
- cytocidal activity, comparison between peptides [3, 4]: stronger cytocidal activity than the longest peptide 9

Compound: KLAKLAK-KLAKLAK-HLAHLAH-HLAHLAH-VRRADNRPG (KLAKLAKKLAKLAKHLAHLAHHLAHLAHVRRADNRPG; D-residues) [WT]
- cytocidal activity (luminescence intensity RLU, indicator of ATP amount) [3, 5]: concentration-dependent cytocidal activity
- cytocidal activity, comparison between peptides [3, 5]: stronger cytocidal activity than the peptide D5E

Compound: KLAKLAK-KLAKLAK-HLAHLAH-HLAHLAH-VRRAENRPG (KLAKLAKKLAKLAKHLAHLAHHLAHLAHVRRAENRPG; KLAK(14)-HLAH(14)-D5E peptide) [Peptide D5E]
- cytocidal activity (luminescence intensity RLU, indicator of ATP amount) [3, 5]: concentration-dependent cytocidal activity

Compound: KLAKLAK-KLAKLAK-HLAHLAH-VRRADNRPG (KLAKLAKKLAKLAKHLAHLAHVRRADNRPG; KLAK(14)-HLAH(7)-Z13 peptide) [Peptide 8]
- cytocidal activity, comparison between peptides [3, 4]: stronger cytocidal activity than the longest peptide 1; also recorded: strongest cytocidal activity

Compound: KLAKLAK-KLAKLAK-VRRADNRPG (KLAKLAKKLAKLAKVRRADNRPG; KLAK(14D)-Z13 peptide) [Peptide A2-1]
- cytocidal activity (relative ATP amount %) [2]: hardly observed or significantly weak
- cytocidal activity (relative ATP amount %) ([3]; 20 hours): hardly observed or significantly weak
